SMILES strings stand for the structures.

4 compounds from patent US8637556B2, “Linked Myc-max small molecule inhibitors” (University of Pittsburgh—Of the Commonwealth System of …, priority 2009, dated 2014) can be followed below.

For test [1], the target named is T1, c-Myc353-437 (monomeric c-Myc bHLH-ZIP) (Homo sapiens, UniProt P01106).
T1 construct: recombinant monomeric c Myc bHLH-ZIP (amino acids 353-437); 6xHis with TEV site (N, cleaved yes); made in house; host or cells: E. coli BL21DE3(pLysS)
T1 sequence (P01106 368-452): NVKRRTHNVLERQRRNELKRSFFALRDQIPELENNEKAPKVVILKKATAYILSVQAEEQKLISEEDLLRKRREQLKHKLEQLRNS
Nature of the test: Fluorescence polarization titration, c-Myc bHLH-ZIP binding. The settings on record: Table 1; FP of nitrobenzofurazan moiety, c-Myc353-437; read-out: KD (c-Myc affinity, bivalent). An excerpt:
(§1) A c-Myc353-437 full-length bHLH-ZIP domain and its truncated version c-Myc390-439 were produced from the c-Myc/pET SKB3 construct, kindly supplied by Dr. S. K. Nair (University of Illinois, Urbana-Champaign), by insertion into the pET151D vector, encoding an N-terminal hexahistidine (6× His), separated by a TEV protease digestion site, with the TOPO® ligation system, and over-expressed in E. coli BL21DE3(pLysS). The 6× His tagged human Max isoform p21, with low homodimerization affinity^70, cloned into the pQE10 vector (Qiagen, Inc.), was over-expressed in E. coli M15(pRep4). Bacterial cultures were grown at 37° C. in LB medium to OD600≈0.8, then induced with 0.5 mM IPTG for 5 hours. Proteins were purified by Ni-agarose chromatography with a pH gradient elution. The 6× His tag of c-MYC353-437 and c-Myc390-439 was cleaved using TEV protease (the TEV protease was expressed in a pET24 vector [courtesy of S. K. Nair] and purified by Ni-agarose chromatography under native conditions). All the proteins were further purified by HPLC and lyophilized. Protein concentrations were determined by measurement of OD280. The synthetic peptide c-Myc363-381 is described in Follis, A. V., Hammoudeh, D. I., Wang, H., Prochownik, E & Metallo, S. J. Structural rationale for the coupled binding and unfolding of the c-Myc oncoprotein by small molecules. Chemistry & Biology 15, 1149-1155 (2008).
Samples were analyzed in a Photon Technology International QuantaMaster fluorimeter (Birmingham, N.J.) equipped with polymer sheet polarizers. Titration experiments were performed upon serial dilution of 1:1 equimolar solution of inhibitor and either c-Myc353-437, c-Myc390-439 or c-Myc363-381 in a 1×PBS buffer (137 mM NaCl, 2.7 mM KCl, 4.3 mM Na2HPO4, 1.4 mM KH2PO4, pH=7.4), 5% DMSO, over concentrations ranging between 200 μM and 1.5 nM. Excitation and emission wavelengths were independently determined for each inhibitor. Reported data represent the average of at least three independent experiments. Data were fit to a quadratic equation derived from the thermodynamic expression of binding equilibrium:
[formula] where [C]0 represents the total concentration of inhibitor and of c-Myc peptide. The value of KD was determined from the experimental polarization data by fitting to Eq. 2 using KaleidaGraph (Synergy Software, Reading, Pa.) where pol0 is the polarization in the absence of binding and Δpol is the total change in polarization (Park, S. H. & Raines, R. T. Fluorescence polarization assay to quantify protein-protein interactions. Methods in Molecular Biology 261, 161-6 (2004)).
[formula] Due to the very tight binding of some of the tested compounds, it was impossible to perform a full binding titration with an acceptable fluorescence intensity, therefore the polo parameter was experimentally determined from samples of each compound in the absence of c-Myc353-437 at a concentration of 25 μM. Binding specificity experiments were performed by monitoring the FP of 10 μM inhibitors solutions in the above-described buffer in the presence of equimolar p21 Max. […] Circular Dichroism.
Also in this case the c-Myc binding affinity was little affected by the introduction of the linker chain (Table 1, FIG. 11).
We then measured the affinity of the synthesized bivalent inhibitors, by monitoring the FP of the compounds nitrobenzofurazan moiety. […] The estimated free energy of binding of the bivalent compounds was roughly proportional to the sum of those of their monovalent components. In the thermodynamic analysis of multivalent binding a ΔG^s term is used to relate the free energy of binding of a multivalent compound to the sum of those of its monovalent components. This term implies the diverse energy contributions resulting from the linking of independent binding components. The ΔG^s term generally constitutes a negative contribution to the binding affinity of distinct binding components connected by a flexible linker to a given target.
(In fluorescence polarisation assays a small probe gives low polarisation when free and higher when bound to something large.)

Test [2] deals with T2, c-Myc 363-381 (Homo sapiens, UniProt P01106).
T2 construct: The synthetic peptide c-Myc363-381 is described in Follis; host or cells: synthetic peptide
Nature of the test: Fluorescence polarization titration, truncated c-Myc peptide 363-381. The settings on record: Table 2; segment with binding site of 1; read-out: Binding affinity to c-Myc 363-381.
Source text: as §1, with “The synthetic peptide c-Myc363-381 is described in Follis, A. V., Hammoudeh, D. I., Wang, H., Prochownik, E & Metallo, S. J. Structural rationale for the coupled binding and unfolding of the c-Myc oncoprotein by small molecules. Chemistry & Biology 15, 1149-1155 (2008).” left out
Samples were analyzed in a Photon Technology International QuantaMaster fluorimeter (Birmingham, N.J.) equipped with polymer sheet polarizers. […] Excitation and emission wavelengths were independently determined for each inhibitor. […]

Test [3] concerns the target T3, c-Myc 400-439 (Homo sapiens, UniProt P01106).
T3 construct: its truncated version c-Myc390-439 were produced from the c-Myc/pET SKB3 construct; 6xHis with TEV site (N, cleaved yes); made in house; host or cells: E. coli BL21DE3(pLysS)
Briefly: Fluorescence polarization titration, truncated c-Myc segment. The settings on record: Table 2; segment with binding site of 2; read-out: Binding affinity to c-Myc 400-439.

T3 sequence (P01106 405-454): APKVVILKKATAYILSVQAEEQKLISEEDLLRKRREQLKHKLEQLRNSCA

Turning to `CCc1ccc(/C=C2\SC(=O)N(CCCCCCNC(=O)c3ccccc3Nc3ccc([N+](=O)[O-])c4nonc34)C2=O)cc1` [compound 16, N-{6-[(5Z)-5-[(4-ethylphenyl)methylidene]-2,4-dioxo-1,3-thiazolidin-3-yl]hexyl}-2-[(7-nitro-2,1,3-benzoxadiazol-4-yl)amino]benzamide amine], in test [1], the Kd is 2.2 ± 0.2 nM. `O=C1NC(=S)SC1=Cc1ccc(C(=O)NCCCCCNC(=O)c2ccc(Nc3ccc([N+](=O)[O-])c4nonc34)cc2)cc1` [compound 13]: the Kd in test [1] stood at 4.7 ± 0.8 nM; in test [2], 0.8 ± 0.6 nM; in test [3], 53 ± 16 nM. As to `CCc1ccc(C=C2SC(=O)N(CCCCCCNC(=O)c3cccc(Nc4ccc([N+](=O)[O-])c5nonc45)c3)C2=O)cc1` [compound 17], the Kd in test [1] turned out to be 110 ± 20 nM. As for `O=C1NC(=S)S/C1=C\c1ccc(C(=O)NCCCCCNC(=O)c2cccc(Nc3ccc([N+](=O)[O-])c4nonc34)c2)cc1` [compound 12, N-[5-({3-[(7-nitro-2,1,3-benzoxadiazol-4-yl)amino]phenyl}formamido)pentyl]-4-{[(5Z)-4-oxo-2-sulfanylidene-1,3-thiazolidin-5-ylidene]methyl}benzamide], in test [1], the Kd was 400 ± 100 nM.
